Experimental data reported in US6713474B2, “Pyrrolopyrimidines as therapeutic agents” (Abbott GmbH & Co. KG, priority 1998, dated 2004).

| SMILES | melting point |
| --- | --- |
| Nc1ncnc2c1c(-c1ccc(Oc3ccccc3)cc1)cn2C1CCNC1 (stereo not drawn) [Example 205, 5-(4-Phenoxyphenyl)-7-(3-pyrrolidinyl) -7H-pyrrolo[2,3-d]pyrimidin-4-ylamine] | 182 to 184 °C |
| CN(C)[C@H]1CC[C@H](n2cc(-c3ccc(Oc4ccccc4)cc3)c3c(N)ncnc32)CC1 [Example 196, Trans-7-(4-Dimethylaminocyclohexyl)-5-(4-phenoxyphenyl)-7H-pyrrolo[2,3-d]pyrimidin-4-ylamine] | 207.5 to 210 °C |
| CCOC(=O)C(C)n1cc(-c2ccc(Oc3ccccc3)cc2)c2c(N)ncnc21 (stereo not drawn) [Example 148, Ethyl 2-[4-Amino-5-(4-phenoxyphenyl)-7H-pyrrolo[2,3-d]pyrimidin-7-yl]propionate] | 139 to 140 °C |
| NCc1cccnc1-n1cc(-c2ccc(Oc3ccccc3)cc2)c2c(N)ncnc21.O=C(O)/C=C\C(=O)O.O=C(O)/C=C\C(=O)O | 131 to 134 °C |
| Nc1ncnc2c1c(-c1ccc(Oc3ccccc3)cc1)cn2S(=O)(=O)C1CCCC1 [Example 168, 7-Cyclopentanesulphonyl-5-(4-phenoxyphenyl)-7H-pyrrolo[2,3-d]pyrimidin-4-ylamine] | 188 to 188.5 °C |
| Nc1ncnc2c1c(-c1ccc(Oc3ccccc3)cc1)cn2C1COCC1O (stereo not drawn) [Example 30, 4-[4-Amino-5-(4-phenoxyphenyl)-7H-pyrrolo-[2,3-d]pyrimidin-7-yl]tetrahydrofuran-3-ol] | 234.5 to 235.5 °C |
| Nc1ncnc2c1c(-c1ccc(Oc3ccccc3)cc1)cn2C1CCOC1 (stereo not drawn) [Example 22, 5-(4-Phenoxyphenyl)-7-(3-tetrahydrofuryl)-7H-pyrrolo[2,3-d]pyrimidin-4-ylamine] | 196 to 196.5 °C |
| COCCCNc1cccc(Oc2ccc(-c3cn(C4CCOCC4)c4ncnc(N)c34)cc2)c1C#N [Example 52, 2-[4-(4-Amino-7-(4-tetrahydropyranyl)-7H-pyrrolo[2,3-d]pyrimidin-5-yl)phenoxy)-6-(3-methoxypropylamino)benzonitrile] | 205 to 207 °C |
| CN1CCN([C@@H]2CCC[C@H](n3cc(-c4ccc(Oc5ccccc5)cc4)c4c(N)ncnc43)C2)CC1.Cl.Cl.Cl (relative stereo) | 224.5 to 226.5 °C (dec.) |
| N#Cc1ccccc1Oc1ccc(-c2cn(C3CCOCC3)c3ncnc(N)c23)cc1 [Example 42, 2-[4-(4-Amino-7-(4-tetrahydropyranyl)-7H-pyrrolo[2,3-d]pyrimidin-5-yl)phenoxy]benzonitrile] | 125 °C |
| Nc1ncnc2c1c(-c1ccc(Oc3ccccc3)cc1)cn2C1CCC(O)CC1 (stereo not drawn) [Example 243, 4-[4-Amino-5-(4-phenoxyphenyl)-7H-pyrrolo[2,3-d]pyrimidin-7-yl]cyclohexanol] | 199 to 200 °C |
| N#Cc1c(OCCN2CCOCC2)cccc1Oc1ccc(-c2cn(C3CCOCC3)c3ncnc(N)c23)cc1 [Example 50, 2-(4-(4-Amino-7-(4-tetrahydropyranyl)-7H-pyrrolo[2,3-d]pyrimidin-5-yl)phenoxy]-6-(2-morpholinoethoxy)benzonitrile] | 110 °C |
| N#Cc1c(NCCCn2ccnc2)cccc1Oc1ccc(-c2cn(C3CCOC3)c3ncnc(N)c23)cc1 (stereo not drawn) [Example 39, 2-[4-(4-Amino-7-(3-tetrahydrofuryl)-7H-pyrrolo[2,3-d]pyrimidin-5-yl)phenoxy]-6-(3-imidazol-1-yl)propylaminobenzonitrile] | 110 °C |
| Nc1ncnc2c1c(-c1ccc(Oc3ccccc3)cc1)c(Br)n2C1CCOC1 (stereo not drawn) [Example 40, 4-Amino-6-bromo-5-(4-phenoxyphenyl)-7-(3-tetrahydrofuryl)-7H-pyrrolo[2,3-d]pyrimidine] | 205 to 206 °C |
| Nc1ncnc2c1c(-c1ccc(Oc3ccc(F)cc3)cc1)cn2C1CCOC1 (stereo not drawn) [Example 35, 5-[4-(4-Fluorophenoxy)phenyl]-7-(3-tetrahydrofuryl)-7H-pyrrolo[2,3-d]pyrimidin-4-ylamine] | 198 to 199 °C |
| CC(C(=O)NCCN(C)C)n1cc(-c2ccc(Oc3ccccc3)cc2)c2c(N)ncnc21 (stereo not drawn) [Example 149, N-(2-Dimethylaminoethyl)-2-[4-amino-5-(4-phenoxyphenyl)-7H-pyrrolo[2,3-d]pyrimidin-7-yl)propionamide] | 163 to 164 °C |
| CC(C)(C)OC(=O)N1CCC(n2cc(-c3ccc(Oc4ccccc4)cc3)c3c(N)ncnc32)C1 (stereo not drawn) [Example 203, tert-Butyl 3-[4-Amino-5-(4-phenoxyphenyl)-7H-pyrrolo[2,3-d]pyrimidin-7-yl]-1-pyrrolidinecarboxylate] | 168 to 170 °C |
| Nc1ncnc2c1c(-c1ccc(Oc3ccccc3C=O)cc1)cn2C1CCOC1 (stereo not drawn) [Example 29, 2-[4-(4-Amino-7-(3-tetrahydrofuryl)-7H-pyrrolo[2,3-d)pyrimidin-5-yl)phenoxy]benzaldehyde] | 185 to 187 °C |
| CC(C(=O)O)n1cc(-c2ccc(Oc3ccccc3)cc2)c2c(N)ncnc21 (stereo not drawn) [Example 157, 2-[4-Amino-5-(4-phenoxyphenyl)-7H-pyrrolo[2,3-d]pyrimidin-7-yl]propionic Acid] | 239.5 to 241 °C |
| Nc1ncnc2c1c(-c1ccc(Oc3ccccc3)cc1)cn2CCCCCCCCN1C(=O)c2ccccc2C1=O [Example 169, 5-(4-Phenoxyphenyl)-7-(8-phthalimidooctyl)-7H-pyrrolo[2,3-d]pyrimidin-4-ylamine] | 85 to 86 °C |

| SMILES | melting point |
| --- | --- |
| CCN1CCCC1CNC(=O)Cn1cc(-c2ccc(Oc3ccccc3)cc2)c2c(N)ncnc21 (stereo not drawn) [Example 155, N-(N-Ethylpyrrolidin-2-ylmethyl)-2-[4-amino-5-(4-phenoxyphenyl)-7H-pyrrolo[2,3-d]-pyrimidin-7-yl]acetamide] | 122 to 122.5 °C |
| CN1CCN(C2CCC(n3cc(-c4ccc(Oc5ccccc5)cc4)c4c(N)ncnc43)C2)CC1.O=C(O)/C=C\C(=O)O.O=C(O)/C=C\C(=O)O.O=C(O)/C=C\C(=O)O (stereo not drawn) (hydrate or solvate) | 168 to 170 °C (dec.) |
| Nc1ncnc2c1c(-c1ccc(Oc3ccccc3)cc1)cn2CC(=O)NCCN1CCNCC1 [Example 152, N-[2-(Piperazin-1-yl)ethyl]-2-[4-amino-5-[4-phenoxyphenyl)-7H-pyrrolo[2,3-d]-pyrimidin-7-yl]acetamide] | 138 to 140 °C |
| Nc1ncnc2c1c(-c1ccc(Oc3ccccc3)cc1)cn2CCN1C(=O)c2ccccc2C1=O [Example 171, N-{2-[4-Amino-5-(4-phenoxyphenyl)-7H-pyrrolo[2,3-d]pyrimidin-7-yl]ethyl}phthalimide] | 111 to 112 °C |
| CC(C)(C)OC(=O)N1CCC(n2cc(-c3ccc(Oc4ccccc4)cc3)c3c(N)ncnc32)CC1 [Example 200, tert-Butyl 4-[4-Amino-5-(4-phenoxyphenyl)-7H-pyrrolo[2,3-d]pyrimidin-7-yl]-1-piperidinecarboxylate] | 168.5 to 169.5 °C |
| Cl.NCCn1cc(-c2ccc(Oc3ccccc3)cc2)c2c(N)ncnc21 | 284 to 285 °C |
| CN(C)[C@H]1CC[C@@H](n2cc(-c3ccc(Oc4ccccc4)cc3)c3c(N)ncnc32)CC1 [Example 196, cis-7-(4-Dimethylaminocyclohexyl)-5-(4-phenoxyphenyl)-7H-pyrrolo[2,3-d]pyrimidin-4-ylamine] | 180 to 182 °C |
| N#Cc1ccccc1Oc1ccc(-c2cn(C3CCOC3)c3ncnc(N)c23)cc1 (stereo not drawn) [Example 28, 2-[4-(4-Amino-7-(3-tetrahydrofuryl)-7H-pyrrolo[2,3-d]pyrimidin-5-yl)phenoxy]-benzonitrile] | 201 to 203 °C |
| Nc1ncnc2c1c(-c1ccc(Oc3ccc(CN4CCOCC4)cc3)cc1)cn2C1CCOC1 (stereo not drawn) [Example 36, 5-[4-(4-Morpholinomethylphenoxy)-phenyl]-7-(3-tetrahydrofuryl)-7H-pyrrolo[2,3-d]pyrimidin-4-ylamine] | 142 to 144 °C |
| Nc1ncnc2c1c(-c1ccc(Oc3ccccc3CN3CCOCC3)cc1)cn2C1CCOC1 (stereo not drawn) [Example 31, 5-[4-(2-Morpholinomethylphenoxy)phenyl]-7-(3-tetrahydrofuryl)-7H-pyrrolo[2,3-d]pyrimidin-4-ylamine] | 169 to 171 °C |
| CN1CCN([C@H]2CCC[C@H](n3cc(-c4ccc(Oc5ccccc5)cc4)c4c(N)ncnc43)C2)CC1.Cl.Cl.Cl (relative stereo) (hydrate or solvate) | 304 to 306 °C (dec.) |
| CCN(CC)Cc1ccccc1Oc1ccc(-c2cn(C3CCOC3)c3ncnc(N)c23)cc1 (stereo not drawn) [Example 27, 2-[4-(4-Amino-7-(3-tetrahydrofuryl)-7H-pyrrolo[2,3-d]pyrimidin-5-yl)phenoxy]-N,N-diethylbenzylamine] | 107 to 110 °C |
| N#Cc1c(NCCc2ccncc2)cccc1Oc1ccc(-c2cn(C3CCOC3)c3ncnc(N)c23)cc1 (stereo not drawn) [Example 38, 2-[4-(4-Amino-7-(3-tetrahydrofuryl)-7H-pyrrolo[2,3-d]pyrimidin-5-yl)phenoxy]-6-(2-(4-pyridyl)ethylamino)-benzonitrile] | 212 to 213 °C |
| Nc1ncnc2c1c(-c1ccc(Oc3ccccc3)cc1)cn2C1CCC(=O)CC1 [Example 175, 4-[4-Amino-5-(4-phenoxyphenyl)-7H-pyrrolo[2,3-d]pyrimidin-7-yl]cyclohexanone] | 252 to 254 °C |
| N#Cc1cc(F)ccc1Oc1ccc(-c2cn(C3CCOCC3)c3ncnc(N)c23)cc1 [Example 53, 2-[4-(4-Amino-7-(4-tetrahydropyranyl)-7H-pyrrolo[2,3-d]pyrimidin-5-yl)phenoxy]-5-fluorobenzonitrile] | 216 to 217 °C |
| Nc1ncnc2c1c(-c1ccc(Oc3cccc(CN4CCOCC4)c3)cc1)cn2C1CCOC1 (stereo not drawn) [Example 37, 5-[4-(3-Morpholinomethylphenoxy)phenyl]-7-(3-tetrahydrofuryl)-7H-pyrrolo[2,3-d]pyrimidin-4-ylamine] | 83 to 85 °C |
| Cl.Cl.NCCCCCCCCn1cc(-c2ccc(Oc3ccccc3)cc2)c2c(N)ncnc21.O.O (hydrate or solvate) | 120 °C |
| Nc1ncnc2c1c(-c1ccc(Oc3ccccc3CN3CCCCC3)cc1)cn2C1CCOC1 (stereo not drawn) [Example 32, 5-[4-(2-Piperidinomethylphenoxy)phenyl]-7-(3-tetrahydrofuryl)-7H-pyrrolo[2,3-d]pyrimidin-4-ylamine] | 76 to 78 °C |
| CC(C)(C(N)=O)n1cc(-c2ccc(Oc3ccccc3)cc2)c2c(N)ncnc21 [Example 160, 2-[4-Amino-5-(4-phenoxyphenyl)pyrrolo[2,3-d]pyrimidin-7-yl]-2-methylpropionamide] | 227 to 228 °C |
